Our source for the TGI and GI50 values is PubChem BioAssay (NCI).

Where “and” joins values, the source holds several entries; their conditions need not be identical. Identical values can stand only once.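 All cell lines were grown in 96-well plates and treated with compound for 48 hours. At the GI50, growth is halved. TGI denotes the concentration required for complete inhibition of growth.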 Where only a bound is given, the exact number is not on record here.

What is called TGI is the concentration at which net growth stops. High values mean less potent growth arrest, low ones more potent growth arrest. A word on the GI50: it is the concentration giving 50% growth inhibition.

Test in all cases: DTP human tumour cell line panel, 48 h
Assay [1] has as its system DLD-1 colon.
In assay [2] the test system is DMS 114 small cell lung.
The subject of assay [3] is HOP-18 NSCLC.
The subject of assay [4] is M19-MEL melanoma.
Assay [5] concerns RXF-631 renal.
Assay [6] deals with XF 498 CNS.
In assay [7] the test system is BT-549 breast.
The test system of assay [8] is MCF7 breast.
Assay [9] deals with MDA-MB-435.
Assay [10] concerns NCI/ADR-RES ovarian.
Assay [11] has as its system T-47D breast.

With `O=C(NO)C12C3C4C1C1C2C3C41C(=O)NO` (centres undefined), the TGI in assay [1], in [2], in [3] and in assay [4] was > 100 µM throughout.
As to `C1=Cc2nc1c(-c1ccncc1)c1ccc([n-]1)c(-c1ccncc1)c1nc(c(-c3ccncc3)c3ccc([n-]3)c2-c2ccncc2)C=C1.[Zn+2]`, the TGI in assay [1], in assay [2], in assay [4], in assay [5] and in [6] was > 100 µM throughout.
As for `COC(=O)C(Cl)=C1CC1`, the TGI was 64.1 µM in assay [1], 95.6 µM in assay [2], > 100 µM in assay [4] and 88.7 µM in assay [6].
`CC1C=CC(=O)C(n2cc(F)c(=O)[nH]c2=O)O1` (centres undefined): the TGI in [1] came out at 45.3 µM; in [2], 31.5 µM; in assay [3], 22.6 µM; in assay [4] it was 36.3 µM; in assay [5] it was 48 µM; in [6], 28.7 µM.
Take `Nc1nc2nc[nH]c2c(=O)[nH]1`: the total growth inhibition concentration (TGI) in assay [1], in [3], in assay [4] and in assay [6] was > 100 µM in each case.
With `CCN(CC)C(=O)COc1ccc(Br)cc1Br`, the TGI in assay [1], in assay [2], in assay [3], in assay [4] and in assay [5] was > 100 µM each time.
For `Cc1cc(O)cc2c1O[C@@]1(C)CCC3[C@@]4(C)CC[C@H](O)C(C)(C)C4CC[C@@]3(C)[C@H]1C2` (some centres undefined), the TGI was 12.6 µM in [1], 19.9 µM in assay [2], 27.8 µM in [3] and 25 µM in assay [4].
For the compound `Nc1ccn(C2CC(CO)C(O)C2O)c(=O)n1` (centres undefined), the TGI in [1], in assay [2], in assay [3], in assay [4] and in assay [5] was > 57.7 µM in each case.
Turning to `N.N.NCCCCN.O=C([O-])C1(C(=O)[O-])CCC1.O=C([O-])C1(C(=O)[O-])CCC1.[Pt+4].[Pt+4]`, the GI50 in assay [1] and in assay [3] was > 100 µM throughout. Also, the TGI in assay [1] and in assay [3] was > 100 µM each time.
`CC(C)(C)C(=O)C1CC(=O)c2ccccc2C1=O` (centres undefined): the TGI in [1], in assay [2], in assay [3], in [4], in assay [5] and in assay [6] was > 100 µM in each case.
Turning to `CO[C@@H]1[C@H](OC(=O)NC(=O)CCl)CC[C@]2(CO2)[C@H]1[C@@]1(C)O[C@@H]1CC=C(C)C`, the GI50 in [7] is 16.8 µM; in assay [1], 5.1 µM; in [2], 2.17 µM; in assay [4], 1.17 µM; in assay [8], 10.7 µM; in [9], 5.68 µM. Moreover, the GI50 is 27.9 µM in assay [10] and 4.03 µM in assay [11]. The TGI in [7] is 37.6 µM and 59.1 µM; in assay [1] it was 42 µM; in [2], 23.4 µM; in [4], 24.2 µM; in [8], 44.4 µM and 180 µM; in [9], 29.3 µM and 36.8 µM. Also, the TGI was 62.4 µM and 111 µM in assay [10]; 3.14 µM in [5]; 41.9 µM and 68.9 µM in [11].
On to `CC1OC(OCC2COC(O)(Oc3c(-c4ccc(O)c(O)c4)oc4cc(O)cc(O)c4c3=O)C(O)C2O)C(O)C(O)C1O` (centres undefined), for which the TGI in [1], in [2], in assay [3], in assay [4], in [5] and in assay [6] was > 100 µM in each case.
With `Cc1ccc(Cl)c(NC(=O)C(=O)C(C(=O)c2ccncc2)C2OC(=O)c3ccccc32)c1` (centres undefined), the total growth inhibition concentration (TGI) in assay [1], in assay [2], in assay [3], in [4], in [5] and in [6] was > 100 µM each time.
In the case of `O=C(COc1ccccc1)NS(=O)(=O)c1ccccc1`, the TGI in assay [1], in [2], in assay [3], in [4] and in [5] was > 100 µM throughout.
On to `COc1ccc2c(c1)OC[C@@H]1c3cc4c(cc3O[C@H]21)OCO4`, for which the TGI in assay [1], in assay [2], in assay [3] and in assay [6] was > 100 µM each time.
As to `c1ccc(CN(Cn2cccn2)Cn2cccn2)nc1`, the TGI in assay [1], in assay [2], in assay [4], in [5] and in [6] was > 100 µM throughout.
As to `Cc1cc(Cl)cc2c1NC(=O)C2(O)C(C)C(=O)c1ccc(Cl)cc1` (centres undefined), the concentration for total growth inhibition (TGI) is > 100 µM in assay [1]; > 96.6 µM in assay [2]; > 100 µM in assay [3]; 26.2 µM in assay [4]; > 100 µM in assay [6].
With `COc1ccc2nc3ccccc3c(NCCCCCCN(C)CCCl)c2c1`, the TGI in assay [2] worked out at 1.69 µM; in [4], 1.65 µM; in [6] it was 0.845 µM.
`Cc1ccccc1CN1CC=c2ccccc2=N1`: the TGI in [1], in assay [2], in assay [3], in assay [4], in [5] and in assay [6] was > 100 µM each time.
Regarding `COC(=O)C1=C(CO)C2C=CC1C2` (centres undefined), the TGI in assay [1], in [3], in [4], in assay [5] and in assay [6] was > 100 µM in each case.
`CC(C)(C)c1ccc(C(O)c2ccc(C(C)(C)C)cc2)cc1`: the TGI is 28.3 µM in assay [1]; 25.7 µM in assay [2]; 31.2 µM in assay [3]; 26.9 µM in assay [4]; 28.4 µM in [6].
In the case of `O=C(Nc1c(O)[nH]c(=S)[nH]c1=O)c1ccc2ccccc2n1`, the total growth inhibition concentration (TGI) in assay [1], in [2], in [3], in assay [4] and in assay [5] was > 100 µM in each case.
